Experimental findings from patent US9499550B2 (BRISTOL-MYERS SQUIBB COMPANY, priority 2012, dated 2016) are described below.

In experiment [1] the test system is HCV genotype 1a (H77 strain) replicon in HUH-7 cells. Kind of experiment: HCV replicon luciferase reporter assay, genotype 1a. The conditions noted are these: Hepatitis C virus, Huh-7, 72 h, HCV genotype 1a replicon luciferase assay, 3 days incubation. The class given is cell-based. In short, it runs like this:
(§1)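 Replicon inhibition for both genotypes was measured as Renilla luciferase signal (EnduRen, 7.5 μM final, 2 h) after 3-day, 37° C exposure of replicon-bearing HUH-7 cells in 4% FCS DMEM, 0.5% DMSO. The 1b construct carries S1179I; the 1a H77 construct carries P1496L and S2204I. Twenty-point, 3-fold dilutions were fitted four-parametrically for EC50, and CC50 was taken from multiplexed Cell Titer-Blue.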

In experiment [2] the test system is HCV genotype 1b (Con1) replicon in HUH-7 cells. As to the kind of experiment: HCV replicon luciferase reporter assay, genotype 1b. The class given is cell-based. The conditions noted are these: Hepatitis C virus, Huh-7, 72 h, HCV genotype 1b replicon luciferase assay, 3 days incubation. A digest of the protocol: as §1
Where [3] appears, read: range class, read-out: LE_1a (EC50, range).
Setting [4] is: range class, read-out: LE_1b (EC50, range).

Read-outs that look alike come from different tables or passages of the source.

In the case of `COCCn1nc(O[C@@H]2C[C@H]3C(=O)N[C@]4(C(=O)NS(=O)(=O)C5(C)CC5)C[C@H]4/C=C\CC[C@H](C)C[C@@H](C)[C@H](NC(=O)OC(C)(C)C(C)(F)F)C(=O)N3C2)c2ccccc2c1=O` [Compound 1019, 3,3-difluoro-2-methylbutan-2-yl((2R,6S,7R,9S,13aS,14aR,16aS,Z)-2-((3-(2-methoxyethyl)-4-oxo-3,4-dihydrophthalazin-1-yl)oxy)-7,9-dimethyl-14a-(((1-methylcyclopropyl)sulfonyl)carbamoyl)-5,16-dioxo-1,2,3,5,6,7,8,9,10,11,13a,14,14a,15,16,16a-hexadecahydrocyclopropa[e]pyrrolo[1,2-a][1,4]diazacyclopentadecin-6-yl)carbamate], the EC50 in experiment [1] (setting [3]) is above 87.4 nM; in experiment [1] (read-out: LE_1a (EC50)) it was at least 1000 nM; in experiment [2] (setting [4]), above 87.4 nM; in experiment [2] (read-out: LE_1b (EC50)), 506 nM.

`COCCn1nc(O[C@@H]2C[C@H]3C(=O)N[C@]4(C(=O)NS(=O)(=O)C5(C)CC5)C[C@H]4/C=C\CC[C@@H](C)C[C@@H](C)[C@H](NC(=O)OC(C)(C)C(C)(F)F)C(=O)N3C2)c2ccccc2c1=O` [Compound 1020, 3,3-difluoro-2-methylbutan-2-yl((2R,6S,7R,9R,13aS,14aR,16aS,Z)-2-((3-(2-methoxyethyl)-4-oxo-3,4-dihydrophthalazin-1-yl)oxy)-7,9-dimethyl-14a-(((1-methylcyclopropyl)sulfonyl)carbamoyl)-5,16-dioxo-1,2,3,5,6,7,8,9,10,11,13a,14,14a,15,16,16a-hexadecahydrocyclopropa[e]pyrrolo[1,2-a][1,4]diazacyclopentadecin-6-yl)carbamate]: the half-maximal effective concentration (EC50) in experiment [1] (setting [3]) and in experiment [2] (setting [4]) was 4.82 to 103 nM throughout.

In the case of `COCCn1nc(O[C@@H]2C[C@H]3C(=O)N[C@]4(C(=O)NS(=O)(=O)C5CC5)C[C@H]4/C=C\CC[C@H](C)C[C@@H](C)[C@H](NC(=O)OC(C)(C)C(F)(F)F)C(=O)N3C2)c2ccccc2c1=O` [Compound 1021, 1,1,1-trifluoro-2-methylpropan-2-yl((2R,6S,7R,9S,13aS,14aR,16aS,Z)-14a-((cyclopropylsulfonyl)carbamoyl)-2-((3-(2-methoxyethyl)-4-oxo-3,4-dihydrophthalazin-1-yl)oxy)-7,9-dimethyl-5,16-dioxo-1,2,3,5,6,7,8,9,10,11,13a,14,14a,15,16,16a-hexadecahydrocyclopropa[e]pyrrolo[1,2-a][1,4]diazacyclopentadecin-6-yl)carbamate], the EC50 in experiment [1] (setting [3]) and in experiment [2] (setting [4]) was above 87.4 nM in each case.

With `COCCn1nc(O[C@@H]2C[C@H]3C(=O)N[C@]4(C(=O)NS(=O)(=O)C5CC5)C[C@H]4/C=C\CC[C@@H](C)C[C@@H](C)[C@H](NC(=O)OC(C)(C)C(F)(F)F)C(=O)N3C2)c2ccccc2c1=O` [Compound 1022, 1,1,1-trifluoro-2-methylpropan-2-yl((2R,6S,7R,9R,13aS,14aR,16aS,Z)-14a-((cyclopropylsulfonyl)carbamoyl)-2-((3-(2-methoxyethyl)-4-oxo-3,4-dihydrophthalazin-1-yl)oxy)-7,9-dimethyl-5,16-dioxo-1,2,3,5,6,7,8,9,10,11,13a,14,14a,15,16,16a-hexadecahydrocyclopropa[e]pyrrolo[1,2-a][1,4]diazacyclopentadecin-6-yl)carbamate], the EC50 in experiment [1] (setting [3]) and in experiment [2] (setting [4]) was 4.82 to 103 nM in each case.

In the case of `COCCn1nc(O[C@@H]2C[C@H]3C(=O)N[C@]4(C(=O)NS(=O)(=O)C5CC5)C[C@H]4/C=C\CC[C@@H](C)C[C@@H](C)[C@H](NC(=O)OC(C)(C)C(C)(F)F)C(=O)N3C2)c2ccccc2c1=O` [Compound 1024, 3,3-difluoro-2-methylbutan-2-yl((2R,6S,7R,9R,13aS,14aR,16aS,Z)-14a-((cyclopropylsulfonyl)carbamoyl)-2-((3-(2-methoxyethyl)-4-oxo-3,4-dihydrophthalazin-1-yl)oxy)-7,9-dimethyl-5,16-dioxo-1,2,3,5,6,7,8,9,10,11,13a,14,14a,15,16,16a-hexadecahydrocyclopropa[e]pyrrolo[1,2-a][1,4]diazacyclopentadecin-6-yl)carbamate], the EC50 in experiment [1] (setting [3]) and in experiment [2] (setting [4]) was 4.82 to 103 nM each time.

For the compound `C[C@H]1CC/C=C\[C@@H]2C[C@@]2(C(=O)NS(=O)(=O)C2(C)CC2)NC(=O)[C@@H]2C[C@@H](Oc3ncc(OCC(F)F)c4ccccc34)CN2C(=O)[C@@H](NC(=O)OC(C)(C)C)[C@H](C)C1` [Compound 1025, tert-butyl ((2R,6S,7R,9S,13aS,14aR,16aS,Z)-2-((4-(2,2-difluoroethoxyl)isoquinolin-1-yl)oxy)-7,9-dimethyl-14a-(((1-methylcyclopropyl)sulfonyl)carbamoyl)-5,16-dioxo-1,2,3,5,6,7,8,9,10,11,13a,14,14a,15,16,16a-hexadecahydrocyclopropa[e]pyrrolo[1,2-a][1,4]diazacyclopentadecin-6-yl)carbamate], the EC50 in experiment [1] (setting [3]) was 4.82 to 103 nM; in experiment [2] (setting [4]), below 5.46 nM.

Regarding `C[C@@H]1CC/C=C\[C@@H]2C[C@@]2(C(=O)NS(=O)(=O)C2(C)CC2)NC(=O)[C@@H]2C[C@@H](Oc3ncc(OCC(F)F)c4ccccc34)CN2C(=O)[C@@H](NC(=O)OC(C)(C)C)[C@H](C)C1` [Compound 1026, tert-butyl ((2R,6S,7R,9R,13aS,14aR,16aS,Z)-2-((4-(2,2-difluoroethoxyl)isoquinolin-1-yl)oxy)-7,9-dimethyl-14a-(((1-methylcyclopropyl)sulfonyl)carbamoyl)-5,16-dioxo-1,2,3,5,6,7,8,9,10,11,13a,14,14a,15,16,16a-hexadecahydrocyclopropa[e]pyrrolo[1,2-a][1,4]diazacyclopentadecin-6-yl)carbamate], the concentration for a half-maximal effect (EC50) in experiment [1] (setting [3]) and in experiment [2] (setting [4]) was below 5.46 nM in each case.

Consider `COCCOc1cnc(O[C@@H]2C[C@H]3C(=O)N[C@]4(C(=O)NS(=O)(=O)C5(C)CC5)C[C@H]4/C=C\CC[C@@H](C)C[C@@H](C)[C@H](NC(=O)OC(C)(C)C)C(=O)N3C2)c2ccccc12` [Compound 1027, tert-butyl ((2R,6S,7R,9R,13aS,14aR,16aS,Z)-2-((4-(2-methoxyethoxyl)isoquinolin-1-yl)oxy)-7,9-dimethyl-14a-(((1-methylcyclopropyl)sulfonyl)carbamoyl)-5,16-dioxo-1,2,3,5,6,7,8,9,10,11,13a,14,14a,15,16,16a-hexadecahydrocyclopropa[e]pyrrolo[1,2-a][1,4]diazacyclopentadecin-6-yl)carbamate], for which the EC50 in experiment [1] (setting [3]) and in experiment [2] (setting [4]) was below 5.46 nM each time.

As for `C[C@@H]1CC/C=C\[C@@H]2C[C@@]2(C(=O)NS(=O)(=O)C2CC2)NC(=O)[C@@H]2C[C@@H](Oc3ncc(OCC(F)F)c4ccccc34)CN2C(=O)[C@@H](NC(=O)OC(C)(C)C)[C@H](C)C1` [Compound 1028, tert-butyl ((2R,6S,7R,9R,13aS,14aR,16aS,Z)-14a-((cyclopropylsulfonyl)carbamoyl)-2-((4-(2,2-difluoroethoxyl)isoquinolin-1-yl)oxy)-7,9-dimethyl-5,16-dioxo-1,2,3,5,6,7,8,9,10,11,13a,14,14a,15,16,16a-hexadecahydrocyclopropa[e]pyrrolo[1,2-a][1,4]diazacyclopentadecin-6-yl)carbamate], the concentration giving a half-maximal response (EC50) in experiment [1] (setting [3]) and in experiment [2] (setting [4]) was below 5.46 nM in each case.

Turning to `C[C@H]1CC/C=C\[C@@H]2C[C@@]2(C(=O)NS(=O)(=O)C2(C)CC2)NC(=O)[C@@H]2C[C@@H](Oc3ncc(OCC(F)F)c4ccccc34)CN2C(=O)[C@@H](NC(=O)OC(C)(C)C(F)(F)F)[C@H](C)C1` [Compound 1029, 1,1,1-trifluoro-2-methylpropan-2-yl((2R,6S,7R,9S,13aS,14aR,16aS,Z)-2-((4-(2,2-difluoroethoxyl)isoquinolin-1-yl)oxy)-7,9-dimethyl-14a-(((1-methylcyclopropyl)sulfonyl)carbamoyl)-5,16-dioxo-1,2,3,5,6,7,8,9,10,11,13a,14,14a,15,16,16a-hexadecahydrocyclopropa[e]pyrrolo[1,2-a][1,4]diazacyclopentadecin-6-yl)carbamate], the EC50 in experiment [1] (setting [3]) and in experiment [2] (setting [4]) was 4.82 to 103 nM in each case.

`C[C@@H]1CC/C=C\[C@@H]2C[C@@]2(C(=O)NS(=O)(=O)C2(C)CC2)NC(=O)[C@@H]2C[C@@H](Oc3ncc(OCC(F)F)c4ccccc34)CN2C(=O)[C@@H](NC(=O)OC(C)(C)C(F)(F)F)[C@H](C)C1` [Compound 1030, 1,1,1-trifluoro-2-methylpropan-2-yl((2R,6S,7R,9R,13aS,14aR,16aS,Z)-2-((4-(2,2-difluoroethoxyl)isoquinolin-1-yl)oxy)-7,9-dimethyl-14a-(((1-methylcyclopropyl)sulfonyl)carbamoyl)-5,16-dioxo-1,2,3,5,6,7,8,9,10,11,13a,14,14a,15,16,16a-hexadecahydrocyclopropa[e]pyrrolo[1,2-a][1,4]diazacyclopentadecin-6-yl)carbamate]: the concentration for a half-maximal effect (EC50) in experiment [1] (setting [3]) and in experiment [2] (setting [4]) was below 5.46 nM each time.

For the compound `C[C@H]1CC/C=C\[C@@H]2C[C@@]2(C(=O)NS(=O)(=O)C2CC2)NC(=O)[C@@H]2C[C@@H](Oc3ncc(OCC(F)F)c4ccccc34)CN2C(=O)[C@@H](NC(=O)OC(C)(C)C(F)(F)F)[C@H](C)C1` [Compound 1031, 1,1,1-trifluoro-2-methylpropan-2-yl((2R,6S,7R,9S,13aS,14aR,16aS,Z)-14a-((cyclopropylsulfonyl)carbamoyl)-2-((4-(2,2-difluoroethoxyl)isoquinolin-1-yl)oxy)-7,9-dimethyl-5,16-dioxo-1,2,3,5,6,7,8,9,10,11,13a,14,14a,15,16,16a-hexadecahydrocyclopropa[e]pyrrolo[1,2-a][1,4]diazacyclopentadecin-6-yl)carbamate], the EC50 in experiment [1] (setting [3]) and in experiment [2] (setting [4]) was 4.82 to 103 nM throughout.

A word on the EC50: it is the midpoint of the concentration-response curve.
